# Data reported in ChEMBL document CHEMBL5214956, “Structure-based design and modular synthesis of novel PI4K class II inhibitors bearing a 4-aminoquinazoline scaffold” (Bioorg Med Chem Lett, 2022).
# Key:
# [1] = target: Phosphatidylinositol 4-kinase type 2-alpha (Homo sapiens, UniProt Q9BTU6); test: Inhibition of PI4K2A catalytic domain (unknown origin) assessed as enzyme residual activity incubated for 60 mins using ATP as substrate by ATP-Glo luminescent assay
# [2] = target: Phosphatidylinositol 4-kinase alpha (Homo sapiens, UniProt P42356); test: Inhibition of PI4KA catalytic domain (unknown origin) assessed as enzyme residual activity incubated for 60 mins using ATP as substrate by ATP-Glo luminescent assay
# [3] = target: Phosphatidylinositol 4-kinase beta (Homo sapiens, UniProt Q9UBF8); test: Inhibition of PI4KB catalytic domain (unknown origin) assessed as enzyme residual activity incubated for 60 mins using ATP as substrate by ATP-Glo luminescent assay
# Chain of Phosphatidylinositol 4-kinase beta (Q9UBF8 whole entry, the tested form may be a part): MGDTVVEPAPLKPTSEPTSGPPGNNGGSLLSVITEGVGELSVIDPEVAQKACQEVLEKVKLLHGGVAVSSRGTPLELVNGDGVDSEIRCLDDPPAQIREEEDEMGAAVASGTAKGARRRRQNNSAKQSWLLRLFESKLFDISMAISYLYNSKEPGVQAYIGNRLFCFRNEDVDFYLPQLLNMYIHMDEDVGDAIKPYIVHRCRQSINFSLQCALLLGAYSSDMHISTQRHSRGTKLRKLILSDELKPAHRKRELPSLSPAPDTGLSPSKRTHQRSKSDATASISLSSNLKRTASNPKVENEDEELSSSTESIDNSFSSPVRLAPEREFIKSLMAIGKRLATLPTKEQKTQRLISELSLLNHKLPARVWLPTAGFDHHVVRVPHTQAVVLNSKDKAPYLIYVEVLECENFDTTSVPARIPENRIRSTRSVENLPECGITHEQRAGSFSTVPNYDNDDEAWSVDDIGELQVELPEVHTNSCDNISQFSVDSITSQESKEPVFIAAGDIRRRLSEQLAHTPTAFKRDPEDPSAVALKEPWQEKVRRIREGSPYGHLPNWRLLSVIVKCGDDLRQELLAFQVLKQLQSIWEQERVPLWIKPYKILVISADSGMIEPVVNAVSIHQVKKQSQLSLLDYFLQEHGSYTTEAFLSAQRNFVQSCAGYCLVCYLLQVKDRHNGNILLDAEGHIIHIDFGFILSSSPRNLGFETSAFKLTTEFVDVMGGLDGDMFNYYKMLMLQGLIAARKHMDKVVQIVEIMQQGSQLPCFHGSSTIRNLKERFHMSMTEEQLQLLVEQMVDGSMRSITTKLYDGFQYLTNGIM
# Chain of Phosphatidylinositol 4-kinase alpha (P42356 whole entry, the tested form may be a part): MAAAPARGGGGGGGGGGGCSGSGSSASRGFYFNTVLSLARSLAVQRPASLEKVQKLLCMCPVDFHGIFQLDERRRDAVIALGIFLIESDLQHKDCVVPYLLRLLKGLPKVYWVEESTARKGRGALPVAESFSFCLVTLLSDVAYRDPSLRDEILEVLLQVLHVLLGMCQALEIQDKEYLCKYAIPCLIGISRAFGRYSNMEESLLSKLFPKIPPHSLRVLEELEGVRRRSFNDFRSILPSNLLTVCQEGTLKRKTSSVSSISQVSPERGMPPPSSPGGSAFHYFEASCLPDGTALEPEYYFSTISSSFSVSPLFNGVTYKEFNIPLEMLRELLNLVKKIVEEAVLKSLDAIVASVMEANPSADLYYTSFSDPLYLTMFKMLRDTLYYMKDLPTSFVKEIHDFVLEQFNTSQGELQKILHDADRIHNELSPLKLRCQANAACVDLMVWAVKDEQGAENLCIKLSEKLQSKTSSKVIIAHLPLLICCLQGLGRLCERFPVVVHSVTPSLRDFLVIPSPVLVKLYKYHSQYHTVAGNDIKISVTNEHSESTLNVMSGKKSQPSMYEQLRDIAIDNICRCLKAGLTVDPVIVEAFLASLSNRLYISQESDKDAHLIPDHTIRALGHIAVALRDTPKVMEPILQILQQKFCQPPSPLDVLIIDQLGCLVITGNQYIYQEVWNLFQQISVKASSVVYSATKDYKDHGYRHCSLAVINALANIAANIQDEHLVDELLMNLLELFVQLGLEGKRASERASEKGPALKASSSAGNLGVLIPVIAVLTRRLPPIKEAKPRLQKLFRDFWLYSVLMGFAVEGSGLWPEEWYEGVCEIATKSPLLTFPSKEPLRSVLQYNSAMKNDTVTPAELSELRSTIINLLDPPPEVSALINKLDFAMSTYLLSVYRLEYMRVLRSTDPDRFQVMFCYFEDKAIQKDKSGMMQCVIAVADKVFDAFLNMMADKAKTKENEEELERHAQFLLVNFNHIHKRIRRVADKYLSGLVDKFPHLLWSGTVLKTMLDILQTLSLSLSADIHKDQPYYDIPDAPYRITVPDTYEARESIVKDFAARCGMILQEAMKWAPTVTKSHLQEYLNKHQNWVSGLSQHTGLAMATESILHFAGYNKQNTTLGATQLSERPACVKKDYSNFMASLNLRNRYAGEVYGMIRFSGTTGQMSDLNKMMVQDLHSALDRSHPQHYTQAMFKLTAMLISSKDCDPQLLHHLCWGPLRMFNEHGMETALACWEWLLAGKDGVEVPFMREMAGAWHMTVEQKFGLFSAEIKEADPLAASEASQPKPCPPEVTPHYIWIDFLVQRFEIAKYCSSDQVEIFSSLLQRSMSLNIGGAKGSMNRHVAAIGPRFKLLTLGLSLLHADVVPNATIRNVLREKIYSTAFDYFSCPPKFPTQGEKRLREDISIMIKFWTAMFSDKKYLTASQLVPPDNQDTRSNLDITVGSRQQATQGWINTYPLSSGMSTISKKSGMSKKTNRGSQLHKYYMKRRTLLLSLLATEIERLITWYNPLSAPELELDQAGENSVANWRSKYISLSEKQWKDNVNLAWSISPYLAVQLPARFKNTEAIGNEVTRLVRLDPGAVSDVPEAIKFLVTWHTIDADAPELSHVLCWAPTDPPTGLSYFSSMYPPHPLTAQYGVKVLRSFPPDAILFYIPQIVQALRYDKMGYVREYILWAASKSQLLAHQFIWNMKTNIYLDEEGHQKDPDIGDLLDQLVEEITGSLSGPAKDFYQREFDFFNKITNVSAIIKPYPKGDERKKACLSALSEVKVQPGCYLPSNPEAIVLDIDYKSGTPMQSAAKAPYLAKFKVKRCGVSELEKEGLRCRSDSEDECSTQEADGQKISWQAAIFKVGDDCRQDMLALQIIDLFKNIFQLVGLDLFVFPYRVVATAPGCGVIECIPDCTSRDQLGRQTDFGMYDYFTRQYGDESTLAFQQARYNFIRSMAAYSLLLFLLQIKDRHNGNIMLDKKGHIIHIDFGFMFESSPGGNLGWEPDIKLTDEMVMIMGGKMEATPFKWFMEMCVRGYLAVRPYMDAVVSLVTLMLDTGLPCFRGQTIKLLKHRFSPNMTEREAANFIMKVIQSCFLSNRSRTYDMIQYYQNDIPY
# Chain of Phosphatidylinositol 4-kinase type 2-alpha (Q9BTU6 whole entry, the tested form may be a part): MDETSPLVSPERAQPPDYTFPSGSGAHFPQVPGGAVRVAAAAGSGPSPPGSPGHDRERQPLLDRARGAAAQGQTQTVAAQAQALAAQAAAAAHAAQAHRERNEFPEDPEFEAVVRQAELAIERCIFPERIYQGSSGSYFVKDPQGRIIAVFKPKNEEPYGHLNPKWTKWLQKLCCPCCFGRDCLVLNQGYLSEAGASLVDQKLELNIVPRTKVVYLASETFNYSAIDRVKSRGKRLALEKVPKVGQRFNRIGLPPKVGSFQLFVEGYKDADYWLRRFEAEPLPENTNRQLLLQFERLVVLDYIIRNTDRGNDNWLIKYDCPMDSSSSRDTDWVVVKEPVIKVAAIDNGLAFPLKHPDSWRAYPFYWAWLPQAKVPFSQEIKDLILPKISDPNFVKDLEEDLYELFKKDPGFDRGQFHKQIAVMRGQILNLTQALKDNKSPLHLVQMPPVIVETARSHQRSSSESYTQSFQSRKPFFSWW
Compound,IC50 [1] [µM],IC50 [2] [µM],IC50 [3] [µM]
CCCCc1cc(=O)oc2cc(OCC(=O)N[C@@H](Cc3c[nH]c4ccc(O)cc34)C(=O)O)ccc12,1.46,> 50,> 50
NC(=O)c1cc2c(N)ncnc2cc1-c1ccc2cc[nH]c2c1,–,> 50,> 50
NC(=O)c1cc2c(N)ncnc2cc1-c1ccc2[nH]cnc2c1,–,> 50,–
NC(=O)c1cc2c(N)ncnc2cc1-c1ccc2[nH]ccc2c1,–,> 50,> 50
Nc1ncnc2c1ncn2[C@@H]1C[C@@]2(CO)CC[C@@H]1C2,–,> 50,> 50
NC(=O)c1cc2c(N)ncnc2cc1-c1ccc2c(c1)OCO2,–,> 50,> 50
NC(=O)c1cc2c(N)ncnc2cc1-c1ccc(CO)o1,> 50,–,–
NC(=O)c1cc2c(N)ncnc2cc1-c1cccc(CO)c1,–,> 50,> 50
NC(=O)c1cc2c(N)ncnc2cc1-c1cncc(CO)c1,> 50,–,–
COC[C@H]1OC(=O)c2coc3c2[C@@]1(C)C1=C(C3=O)[C@@H]2CCC(=O)[C@@]2(C)C[C@H]1OC(C)=O [WORTMANNIN],> 30,0.28,0.44
CC(=O)Nc1cccc(-c2cc3ncnc(N)c3cc2C(N)=O)c1,–,> 50,> 50
NC(=O)c1cc2c(N)ncnc2cc1-c1ccc2c(c1)CCO2,–,> 50,> 50
